Reference: ChEMBL document CHEMBL6103626, “Structure-Based Design of New LSD1/EGFRL858R/T790M Dual Inhibitors for Treating EGFR Mutant NSCLC Cancers” (J Med Chem, 2025)
Activity calls are given as the source filed them. The calls are words filed in the database; no cut-off is given here.

Experiments:
[1] = target: T1, LSD1/CoREST complex (Homo sapiens) (UniProt O60341+Q9UKL0); assay: Reversible non-covalent inhibition of LSD1/CoREST (unknown origin) using H3K4me2 as substrate assessed as LSD1 activity recovery after LSD1-compound mixture dilution incubated for 1 hr by HRP/Amplex Red based fluorescence assay; type: protein-complex assay; settings: tested as the 2H-labelled form
T1 sequence (Q9UKL0 whole entry, looked up, other chains not shown, the tested form may be a part): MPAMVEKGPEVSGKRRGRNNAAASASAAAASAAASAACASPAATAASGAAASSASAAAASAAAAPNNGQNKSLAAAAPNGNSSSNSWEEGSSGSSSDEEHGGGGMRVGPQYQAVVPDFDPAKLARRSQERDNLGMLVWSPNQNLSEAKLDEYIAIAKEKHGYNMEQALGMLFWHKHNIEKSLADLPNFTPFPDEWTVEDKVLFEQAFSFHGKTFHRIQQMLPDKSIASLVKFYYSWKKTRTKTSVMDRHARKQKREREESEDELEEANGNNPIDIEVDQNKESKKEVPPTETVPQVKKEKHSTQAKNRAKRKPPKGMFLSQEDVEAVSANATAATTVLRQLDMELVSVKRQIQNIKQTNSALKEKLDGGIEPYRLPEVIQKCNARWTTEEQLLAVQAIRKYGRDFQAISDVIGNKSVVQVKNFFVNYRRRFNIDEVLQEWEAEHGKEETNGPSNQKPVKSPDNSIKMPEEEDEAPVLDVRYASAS

[2] = target: T1, LSD1/CoREST complex (Homo sapiens); assay: (§1) Inhibition of full-length recombinant LSD1 (123 to 852 residues)(unknown origin)/CoREST (305 to 482 residues)(unknown origin) extracted from Escherichia coli using H3K4me2 as substrate at 10 uM preincubated for 5 mins followed by substrate addition measured after 30 mins by HRP/Amplex Red based fluorescence assay relative to control; type: protein-complex assay; settings: time 35.0 min, tested as the 2H-labelled form
[3] = target: Lysine-specific histone demethylase 1A (Homo sapiens) (UniProt O60341); assay: Inhibition of LSD1 in human NCI-H1975 cells assessed as accumulation of H3K4me2 at 0.1 to 10 uM by Western blot analysis; type: cell-based; settings: dose 0.1-10 µM, tested as the 2H-labelled form
[4] = target: T1, LSD1/CoREST complex (Homo sapiens); assay: as §1, with “1” for “10”; type: protein-complex assay; settings: time 35.0 min, tested as the 2H-labelled form
[5] = target: Lysine-specific histone demethylase 1A (Homo sapiens) (UniProt O60341); assay: Binding affinity to LSD1 in human NCI-H1975 cells assessed as increase in thermal stability incubated for 1 hr followed by 40 to 53 degreeC of heat exposure for 3 mins by CETSA; type: cell-based; settings: tested as the 2H-labelled form
NCI-H1975 [6] = assay: Antitumor activity against human NCI-H1975 cells xenografted in athymic nude BALB/c mouse administered orally daily for 27 days; type: functional, cell-based; settings: dose 1.5-3 mg/kg, route po, time 27.0 day, tested as the 2H-labelled form
Mus musculus [7] = assay: In vivo inhibition of LSD1 in athymic nude BALB/c mouse xenografted with human NCI-H1975 cells assessed as H3K4me2 accumulation at 1.5 to 3 mg/kg, po daily for 27 days by Western blot analysis; type: functional, organism-based; settings: dose 1.5-3 mg/kg, time 27.0 day, tested as the 2H-labelled form
[8] = target: Lysine-specific histone demethylase 1A (Homo sapiens) (UniProt O60341); assay: Inhibition of LSD1 in human NCI-H1975 cells assessed as accumulation of H3K9me2 at 0.1 to 10 uM by Western blot analysis; type: cell-based; settings: dose 0.1-10 µM, tested as the 2H-labelled form
Mus musculus [9] = assay: In vivo inhibition of EGFR in athymic nude BALB/c mouse xenografted with human NCI-H1975 cells assessed as decrease in ERK phosphorylation at 1.5 to 3 mg/kg, po daily for 27 days by Western blot analysis; type: functional, organism-based; settings: dose 1.5-3 mg/kg, time 27.0 day, tested as the 2H-labelled form
Mus musculus [10] = assay: In vivo inhibition of LSD1 in athymic nude BALB/c mouse xenografted with human NCI-H1975 cells assessed as H3K9me2 accumulation at 1.5 to 3 mg/kg, po daily for 27 days by Western blot analysis; type: functional, organism-based; settings: dose 1.5-3 mg/kg, time 27.0 day, tested as the 2H-labelled form
Mus musculus [11] = assay: In vivo inhibition of EGFR phosphorylation in athymic nude BALB/c mouse xenografted with human NCI-H1975 cells at 1.5 to 3 mg/kg, po daily for 27 days by Western blot analysis; type: functional, organism-based; settings: dose 1.5-3 mg/kg, time 27.0 day, tested as the 2H-labelled form
LSD1/CoREST complex [12] = target: T2, LSD1/CoREST complex (Homo sapiens, UniProt O60341); assay: as §1, with “substrate” for “substrate at 10 uM”, “assay” for “assay relative to control”; type: protein-complex assay
[13] = tested on: Osimertinib-resistant NCI-H1975 cell; assay: Antiproliferative activity against human Osimertinib-resistant NCI-H1975 cells measured after 72 hrs by SRB assay
[14] = Half life in Sprague-Dawley rat at 10 mg/kg, iv measured for 24 hrs by LC-MS/MS analysis; type: ADME, organism-based; settings: in vivo
[15] = Antiproliferative activity against human PC9-OR cells measured after 72 hrs by SRB assay
[16] = Volume of distribution at steady state in Sprague-Dawley rat at 10 mg/kg, iv measured for 24 hrs by LC-MS/MS analysis; type: ADME, organism-based; settings: in vivo, read-out: Vdss
[17] = MRTlast in Sprague-Dawley rat at 10 mg/kg, iv measured for 24 hrs by LC-MS/MS analysis; type: ADME, organism-based; settings: in vivo
[18] = MRTlast in Sprague-Dawley rat at 40 mg/kg, po measured for 24 hrs by LC-MS/MS analysis; type: ADME, organism-based; settings: in vivo
[19] = Toxicity in athymic nude BALB/c mouse xenografted with human NCI-H1975 cells assessed as drug tolerance at 3 mg/kg, po daily for 27 days; type: organism-based; settings: in vivo, 648 h, time 27 day
[20] = MRT (infinity) in Sprague-Dawley rat at 40 mg/kg, po measured for 24 hrs by LC-MS/MS analysis; type: ADME, organism-based; settings: in vivo
cells = settings: Homo sapiens, NCI-H1975, 72 h
[21] = AUClast in Sprague-Dawley rat at 40 mg/kg, po measured for 24 hrs by LC-MS/MS analysis; type: ADME, organism-based; settings: in vivo
[22] = Tmax in Sprague-Dawley rat at 40 mg/kg, po measured for 24 hrs by LC-MS/MS analysis; type: ADME, organism-based; settings: in vivo
[23] = MRT (infinity) in Sprague-Dawley rat at 10 mg/kg, iv measured for 24 hrs by LC-MS/MS analysis; type: ADME, organism-based; settings: in vivo
[24] = Cmax in Sprague-Dawley rat at 40 mg/kg, po measured for 24 hrs by LC-MS/MS analysis; type: ADME, organism-based; settings: in vivo
[25] = Oral bioavailability in Sprague-Dawley rat at 40 mg/kg measured for 24 hrs by LC-MS/MS analysis; type: ADME, organism-based; settings: in vivo
[26] = AUC (infinity) in Sprague-Dawley rat at 40 mg/kg, po measured for 24 hrs by LC-MS/MS analysis; type: ADME, organism-based; settings: in vivo
[27] = AUClast in Sprague-Dawley rat at 10 mg/kg, iv measured for 24 hrs by LC-MS/MS analysis; type: ADME, organism-based; settings: in vivo
NCI-H1975 [28] = assay: Antitumor activity against human NCI-H1975 cells xenografted in athymic nude BALB/c mouse at 3 mg/kg, po daily for 27 days relative to control; type: functional; settings: NCI-H1975, 648 h, time 27 day, read-out: TGI
A-431 = assay: Antiproliferative activity against human A-431 cells expressing wild-type EGFR measured after 72 hrs by SRB assay; settings: A-431, 72 h
[29] = Antiproliferative activity against human PC9 Gefitinib-resistant (GR) cells measured after 72 hrs by SRB assay; settings: PC9 Gefitinib-resistant (GR) cell
[30] = Half life in Sprague-Dawley rat at 40 mg/kg, po measured for 24 hrs by LC-MS/MS analysis; type: ADME, organism-based; settings: in vivo
[31] = Toxicity in athymic nude BALB/c mouse xenografted with human NCI-H1975 cells assessed as body weight loss at 3 mg/kg, po daily for 27 days; type: organism-based; settings: in vivo, 648 h, time 27 day
[32] = AUC (infinity) in Sprague-Dawley rat at 10 mg/kg, iv measured for 24 hrs by LC-MS/MS analysis; type: ADME, organism-based; settings: in vivo
[33] = Clearance in Sprague-Dawley rat at 10 mg/kg, iv measured for 24 hrs by LC-MS/MS analysis; type: ADME, organism-based; settings: in vivo
LSD1/CoREST complex [34] = target: T2, LSD1/CoREST complex; assay: Non-competitive inhibition of LSD1/CoREST (unknown origin) using H3K4me2 as substrate incubated for 0.5 hrs by ELISA; type: protein-complex assay
PC-9 = assay: Antiproliferative activity against human PC-9 cells expressing EGFR del19 mutant measured after 72 hrs by SRB assay; settings: PC-9, 72 h
[35] = target: Epidermal growth factor receptor (Homo sapiens, UniProt P00533, L858R/T790M); assay: Inhibition of EGFR L858R/T790M mutant (unknown origin) using Glu/Tyr as substrate incubated for 1 hr by ELISA
Chain of Epidermal growth factor receptor (Homo sapiens, UniProt P00533, L858R/T790M) (P00533 25-1210 T790M/L858R limits assumed): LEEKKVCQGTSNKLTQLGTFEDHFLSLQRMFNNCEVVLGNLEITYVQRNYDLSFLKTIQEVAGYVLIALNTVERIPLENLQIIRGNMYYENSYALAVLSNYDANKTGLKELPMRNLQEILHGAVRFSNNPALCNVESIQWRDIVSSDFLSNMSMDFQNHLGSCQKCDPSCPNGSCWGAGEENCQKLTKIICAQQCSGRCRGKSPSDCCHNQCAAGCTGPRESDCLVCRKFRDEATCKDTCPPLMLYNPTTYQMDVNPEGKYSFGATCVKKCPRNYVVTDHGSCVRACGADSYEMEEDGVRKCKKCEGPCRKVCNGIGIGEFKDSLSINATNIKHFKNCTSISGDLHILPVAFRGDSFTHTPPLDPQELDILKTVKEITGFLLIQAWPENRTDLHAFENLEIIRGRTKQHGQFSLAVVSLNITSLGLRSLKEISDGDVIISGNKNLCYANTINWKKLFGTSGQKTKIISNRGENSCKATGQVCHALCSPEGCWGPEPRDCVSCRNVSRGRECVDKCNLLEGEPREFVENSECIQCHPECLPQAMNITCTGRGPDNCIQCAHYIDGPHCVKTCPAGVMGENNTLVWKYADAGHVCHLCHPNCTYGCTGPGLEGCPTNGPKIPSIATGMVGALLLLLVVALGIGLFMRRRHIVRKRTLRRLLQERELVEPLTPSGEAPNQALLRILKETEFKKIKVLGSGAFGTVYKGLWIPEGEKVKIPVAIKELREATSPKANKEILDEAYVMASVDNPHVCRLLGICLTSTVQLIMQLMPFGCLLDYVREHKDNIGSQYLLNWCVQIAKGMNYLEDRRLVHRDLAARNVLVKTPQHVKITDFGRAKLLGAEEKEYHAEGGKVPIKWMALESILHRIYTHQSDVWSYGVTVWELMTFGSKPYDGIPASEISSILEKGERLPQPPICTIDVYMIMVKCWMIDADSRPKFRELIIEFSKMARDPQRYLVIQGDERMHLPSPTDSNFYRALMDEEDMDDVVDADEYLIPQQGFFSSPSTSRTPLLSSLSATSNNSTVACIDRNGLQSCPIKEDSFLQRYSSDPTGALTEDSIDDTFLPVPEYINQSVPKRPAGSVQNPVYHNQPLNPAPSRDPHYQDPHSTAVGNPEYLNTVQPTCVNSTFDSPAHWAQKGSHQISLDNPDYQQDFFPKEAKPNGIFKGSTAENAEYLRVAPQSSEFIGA

[36] = target: Epidermal growth factor receptor (Homo sapiens, UniProt P00533); assay: Inhibition of wild-type EGFR (unknown origin) using Glu/Tyr as substrate incubated for 1 hr by ELISA
Chain of Epidermal growth factor receptor (Homo sapiens, UniProt P00533) (P00533 whole entry): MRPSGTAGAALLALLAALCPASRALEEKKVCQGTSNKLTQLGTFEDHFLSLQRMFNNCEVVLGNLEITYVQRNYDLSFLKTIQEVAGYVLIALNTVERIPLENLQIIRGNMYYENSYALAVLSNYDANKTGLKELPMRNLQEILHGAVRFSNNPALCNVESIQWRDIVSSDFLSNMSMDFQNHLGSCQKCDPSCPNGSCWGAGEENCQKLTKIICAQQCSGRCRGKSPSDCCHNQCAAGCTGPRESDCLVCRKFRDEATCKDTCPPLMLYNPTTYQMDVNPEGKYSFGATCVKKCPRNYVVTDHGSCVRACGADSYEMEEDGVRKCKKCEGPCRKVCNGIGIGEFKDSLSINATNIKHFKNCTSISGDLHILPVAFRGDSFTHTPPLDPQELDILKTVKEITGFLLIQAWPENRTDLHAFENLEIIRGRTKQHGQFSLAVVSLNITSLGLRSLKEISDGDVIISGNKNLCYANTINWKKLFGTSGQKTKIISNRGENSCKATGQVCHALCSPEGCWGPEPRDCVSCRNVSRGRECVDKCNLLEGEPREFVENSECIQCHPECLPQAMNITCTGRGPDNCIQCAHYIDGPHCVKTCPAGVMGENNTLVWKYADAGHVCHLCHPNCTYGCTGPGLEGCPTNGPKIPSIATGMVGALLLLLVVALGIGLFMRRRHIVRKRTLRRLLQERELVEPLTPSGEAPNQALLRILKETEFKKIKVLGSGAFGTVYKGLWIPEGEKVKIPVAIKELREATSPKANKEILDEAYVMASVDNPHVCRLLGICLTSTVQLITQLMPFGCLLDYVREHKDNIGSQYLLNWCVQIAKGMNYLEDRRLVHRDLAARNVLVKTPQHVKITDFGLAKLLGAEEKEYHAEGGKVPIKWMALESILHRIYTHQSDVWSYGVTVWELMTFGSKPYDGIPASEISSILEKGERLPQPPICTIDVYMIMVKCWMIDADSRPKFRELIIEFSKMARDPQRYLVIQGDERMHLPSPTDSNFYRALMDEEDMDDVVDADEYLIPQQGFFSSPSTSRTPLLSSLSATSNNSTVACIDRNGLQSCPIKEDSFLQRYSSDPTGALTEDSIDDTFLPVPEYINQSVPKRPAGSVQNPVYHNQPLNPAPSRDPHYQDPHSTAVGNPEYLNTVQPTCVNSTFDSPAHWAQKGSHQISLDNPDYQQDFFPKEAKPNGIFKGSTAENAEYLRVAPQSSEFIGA

inhibition [1] | inhibition [2] [%] | inhibition [3] | inhibition [4] [%] | Activity [5] | inhibition [8] | IC50 (LSD1/CoREST complex [12]) [µM] | IC50 [13] [µM] | half-life [14] [h] | Vd [16] [L/kg] | MRT last at 24 h [17] [h] | MRT last at 24 h [18] [h] | IC50 (cells) [µM] | Compound | Activity (NCI-H1975 [6]) | inhibition (Mus musculus [7]) | inhibition (Mus musculus [9]) | inhibition (Mus musculus [10]) | inhibition (Mus musculus [11]) | IC50 [15] [µM] | Activity [19] | also measured
Active | 100 | Active | 98.2 | Active | Active | – | – | – | – | – | – | – | C=CC(=O)Nc1cc(Nc2nccc(-c3cn(C)c4ccccc34)n2)c(OC)cc1N1CC[C@@H](N(C)C)C1 | Dose-dependent-effect | Active | Active | Active | Active | – | – | –
– | – | – | – | – | – | 0.6 | 8.93 | 6.07 | 15.5 | 5.08 | 6.76 | 1.75 | [2H]C([2H])([2H])n1cc(-c2ccnc(Nc3cc(NC(=O)C=C)c(N4CC[C@@H](N(C)C)C4)cc3OC)n2)c2ccccc21 | – | – | – | – | – | 6.73 | Non-toxic | MRT inf [20]: 8.14 h; AUC(0-t) at 24 h [21]: 10.4 µg·h/mL; Tmax [22]: 5 h; MRT inf [23]: 6.51 h; Cmax [24]: 0.724 µg/mL; bioavailability [25]: 65.1%; AUC(0-inf) [26]: 9.72 µg·h/mL; AUC(0-t) at 24 h [27]: 4 µg·h/mL; inhibition in vivo at 3 mg/kg (NCI-H1975 [28]): 60.4%; IC50 (A-431): 2.46 µM; IC50 [29]: 5.35 µM; half-life [30]: 6.23 h; Activity [31]: Non-toxic; AUC(0-inf) [32]: 4.22 µg·h/mL; clearance [33]: 2.39 L/h/kg; Ki (LSD1/CoREST complex [34]): 0.257 µM; IC50 (PC-9): 6.81 µM
– | – | – | – | – | – | 8 | 1.6 | 13 | 32.3 | 7.17 | 9.37 | 0.07 | [2H]C([2H])([2H])n1cc(-c2ccnc(Nc3cc(NC(=O)C=C)c(N4CCC(C)(N)CC4)cc3OC)n2)c2ccccc21 | – | – | – | – | – | 0.85 | Non-toxic | IC50 [35]: 0.0068 µM; IC50 [36]: 0.788 µM; AUC(0-t) at 24 h [21]: 8.84 µg·h/mL; Tmax [22]: 6 h; MRT inf [23]: 16 h; Cmax [24]: 0.568 µg/mL; bioavailability [25]: 59.6%; AUC(0-t) at 24 h [27]: 3.74 µg·h/mL; inhibition in vivo at 3 mg/kg (NCI-H1975 [28]): 51.3%; IC50 (A-431): 0.29 µM; IC50 [29]: 1.37 µM; Activity [31]: Non-toxic; AUC(0-inf) [32]: 4.95 µg·h/mL; clearance [33]: 2.03 L/h/kg; Ki (LSD1/CoREST complex [34]): 2.34 µM; IC50 (PC-9): 0.93 µM
Active | 100 | Active | 36 | Active | Active | – | – | – | – | – | – | – | C=CC(=O)Nc1cc(Nc2nccc(-c3cn(C)c4ccccc34)n2)c(OC)cc1N1CCC(C)(N)CC1 | Dose-dependent-effect | Active | Active | Active | Active | – | – | –
